Values joined by “and” are separate entries in the source; they are usually repeats but may differ in a detail not shown here. Equal entries are not always repeated.
Test system: recurrent or metastatic (R/M) adenoid cystic carcinoma (ACC)
Experiment: Phase 2 single-arm study of rivoceranib in R/M ACC: response, DoR, PFS, TTP per RECIST V1.1
Assay type: in vivo, human
Excerpt: Overall design: An ongoing Phase 2, multicenter, open-label, single-arm study was designed to evaluate the efficacy and safety of rivoceranib in patients with recurrent or metastatic (R/M) adenoid cystic carcinoma (ACC) of all anatomic sites of origin. The study was composed of an initial screening phase (up to 28 days), a treatment phase, and a follow-up phase.
Objectives: Primary objectives were to evaluate safety & tolerability, efficacy by objective response rate (ORR), best overall response (BOR), time to response, duration of response, disease control rate, and duration of disease control. Secondary objectives were to evaluate efficacy as measured by overall survival, progression-free survival and event-free survival. The primary efficacy endpoint was the ORR, defined as the proportion of patients who achieved confirmed complete response (CR) or partial response (PR) per Response Evaluation Criteria in Solid Tumors (RECIST) Version 1.1 (V1.1). The secondary efficacy endpoints were duration of response (DoR) assessed by the investigator and a blinded independent review committee (BIRC), progression-free survival (PFS) assessed at 6 months, 12 months, and 2 years by investigator and BIRC, Time to Progression (TTP) assessed by investigator and BIRC, and overall survival (OS) assessed at 1 and 2 years. Exploratory efficacy endpoints include ORR per CHOI response criteria (based on the journal article, Choi et al., Correlation of computed tomography and positron emission tomography in patients with metastatic gastrointestinal stromal tumor treated at a single institution with imatinib mesylate: proposal of new computed tomography response criteria. J Clin Oncol. 2007; 25(13): 1753-1759) by a blinded independent review […] (BIRC) and disease control rate (DCR) per RECIST V1.1 by Investigator and BIRC. Except for CHOI response criteria, all response endpoints were assessed per RECIST V1.1 by Investigator and BIRC.
Patients: The study was conducted at 11 study sites in the USA and South Korea. A total of 80 patients were enrolled and received at least 1 dose of study drug (rivoceranib). Fifty-three patients were enrolled in the USA and 27 patients were enrolled in Korea. Eligible patients were 18 years or older and were required to have histologically or cytologically confirmed R/M ACC of any anatomic location not amenable to curative surgery or radiotherapy. Due to the indolent nature of the disease, patients were required to have evidence of disease progression by RECIST V1.1 within the 6 months prior to study entry, evidenced by: ≥20% increase in radiologically or clinically measurable lesions or appearance of new lesions. Patients were required to have at least 1 measurable target lesion by RECIST V1.1. There were no restrictions on prior systemic therapies. Patients were permitted to have prior VEGFR TKI exposure if dosage was discontinued within 5 half-lives prior to rivoceranib treatment. The patients were permitted if they have an Eastern Cooperative Oncology Group (ECOG) performance status of 0 or 1. Patients with treated central nervous system metastases were permitted if they were stable for four weeks prior to study treatment. Eligible patients had documented primary diagnosis of solid tumor cancer of ACC for which anti-VEGFR-2 targeted therapy could be applicable. The majority of patients had primary tumors in the major (33.8%) or minor (58.8%) salivary glands; 6 patients (7.5%) had primary tumors in other locations: lung, breast, trachea, Cowper's gland, intracranial temporal lobe and lymph node. Median time from original ACC diagnosis was 69.62 months. The majority of patients (92.5%) had metastatic disease.
Dose determination: Enrolled patients initiated treatment with rivoceranib 700 mg daily (QD). Up to 3 levels of dose reduction for toxicity were permitted: 500 mg QD, 300 mg QD and 200 mg QD. Patients received treatment until disease progression, unacceptable toxicity, death or withdrawal of consent to treatment. […]

[1] = RECIST V1.1, Investigator, Systemic therapy-naïve N = 29, 700 mg QD start
[2] = RECIST V1.1, Investigator, Systemic therapy-treated N = 44, 700 mg QD start
[3] = RECIST V1.1, Investigator, Total N = 73, 700 mg QD start
[4] = RECIST V1.1, Investigator, Total N = 73, Kaplan-Meier, 700 mg QD start
[5] = RECIST V1.1, Investigator, VEGFRi-naïve N = 60, 700 mg QD start
[6] = RECIST V1.1, Investigator, VEGFRi-naïve N = 60, Kaplan-Meier, 700 mg QD start
[7] = RECIST V1.1, Investigator, VEGFRi-treated N = 13, 700 mg QD start
[8] = RECIST V1.1, Investigator, patients with ≥20% pre-study increase in lesions, N = 51
[9] = confirmed objective response by Investigator
[10] = within the 19.5-month follow-up, N = 80

## N#CC1(c2ccc(NC(=O)c3cccnc3NCc3ccncc3)cc2)CCCC1 [Rivoceranib, N-[4-(1-cyanocyclopentyl)phenyl]-2-{[(pyridin-4-yl)methyl]amino}pyridine-3-carboxamide]
[1]
  DoR 25th percentile: 7.4 months
  DoR 75th percentile: 14.9 months
  DoR Median: 13.5 months
[2]
  BOR: Complete Response: 0%
  BOR: Not Evaluable: 0%
  BOR: Partial Response: (11.4) %
  BOR: Progressive Disease: (11.4) %
  BOR: Stable Disease: (77.3) %
  DoR 25th percentile: 14.6 months
  DoR 75th percentile: 17.3 months
  DoR Median: 17.3 months
[3]
  BOR: Complete Response: 0%
  BOR: Not Evaluable: 0%
  Median TTP (95% CI): 9.1 (8.5-13.8) months
  PFS landmark 6-months, % (95% CI): 76.3 (64.2-84.8) %
  PFS landmark 12-months, % (95% CI): 39.7 (27.4-51.6) %
[4]
  DoR 25th percentile: 11.9 months
  DoR 75th percentile: 17.3 months
  DoR Median (95% CI): 14.9 months and 14.9 (4.9, 17.3) months
  Median PFS (95% CI): 9.0 (7.5-12.8) months
[5]
  BOR: Complete Response: 0%
  BOR: Not Evaluable: 0%
  BOR: Partial Response: 11 (18.3) %
  BOR: Progressive Disease: 6 (10.0) %
  BOR: Stable Disease: 43 (71.7) %
  DCR (disease control rate, CR, PR or SD ≥3 months): 37 (61.7) %
  Median PFS (95% CI): 9.0 (7.3-12.8) months
  Median TTP (95% CI): 9.0 (7.3-13.5) months
  ORR (objective response rate): 11 (18.3) %
  PFS landmark 6-months, % (95% CI): 74.5 (60.7-84.1) %
  PFS landmark 12-months, % (95% CI): 38.7 (25.5-51.8) %
[6]
  DoR 25th percentile: 11.9 months
  DoR 75th percentile: 17.3 months
  DoR Median (95% CI): 14.9 (4.9, 17.3) months
[7]
  BOR: Complete Response: 0%
  BOR: Not Evaluable: 0%
  BOR: Partial Response: 0%
  BOR: Progressive Disease: 2 (15.4) %
  BOR: Stable Disease: 11 (84.6) %
  DCR (disease control rate, CR, PR or SD ≥3 months): 10 (76.9) %
  Median PFS (95% CI): 10.6 (7.1-17.7) months
  Median TTP (95% CI): 16.4 (8.9-19.1) months
  ORR (objective response rate): 0%
  PFS landmark 6-months, % (95% CI): 84.6 (51.2-95.9) %
  PFS landmark 12-months, % (95% CI): 43.0 (13.8-69.8) %
RECIST V1.1, Investigator, efficacy evaluable, 700 mg QD start
  estimated PFS rate at 9 months: 53.6%
[8]
  Maximum Change in SOT During the first 6 Months on Treatment with Rivoceranib, Mean: −9.9 mm
  Maximum Change in SOT During the first 6 Months on Treatment with Rivoceranib, Median: −7.0 mm
  Maximum Change in SOT at Any Time on Treatment, Mean: −10.4 mm
  Maximum Change in SOT at Any Time on Treatment, Median: −8.0 mm
[9]
  patients with initial response observed at 100 mg: 1 patient
  patients with initial response observed at 200 mg: 1.3%
  patients with initial response observed at 300 mg: 4.1%
  patients with initial response observed at 500 mg: 5.5%
  patients with initial response observed at 700 mg: 2.7%
[10]
  patients who died due to disease progression or cancer despite treatment: ≥ 21.3%
  patients who had disease progression despite treatment: 48.5%

Reference: patent US20260041677A1, “COMPOSITIONS AND METHODS FOR TREATING ADENOID CYSTIC CARCINOMA” (ELEVAR THERAPEUTICS, INC., priority 2022, published 2026)
